The values that follow come from article PMC6677754, “In silico design and optimization of selective membranolytic anticancer peptides” (Scientific Reports, 2019).

Peptide text beside a SMILES is read from it. A value given as a limit tells only on which side of the number the result lay.

One data set relates to human erythrocytes. Description: Hemolysis assay. The following applies: red cells of human, 1 h. In kind it is cell-based. The procedure: Human erythrocytes were freshly ordered at the Blutspende Zürich. Erythrocytes were washed 3 times with a […] phosphate buffered saline (PBS, Gibco, Thermo Fisher Scientific, Waltham, MA, USA) solution centrifuging at 800 g for 10 min or until the supernatant appeared clear to remove the blood plasma. A 5% v/v erythrocytes : PBS solution was prepared for direct use. For HC50 determination, peptides were dissolved in PBS at an intermediate concentration of 1 mM. A dilution series of the peptide from 200 to 6.25 μM was plated in a round-bottomed 96-well plate in triplicates, with a volume of 50 μL per well. PBS buffer and a solution of 0.1% Triton-X-100 (Fisher Chemical, Loughborough, UK) in PBS were employed as negative and positive controls, respectively. 50 μL of the 5% erythrocyte solution were added in each well and the plates were incubated at 37°C for 1 h. After this time, 100 μL PBS were added to each well and plates were centrifuged at 800 g for 10 min. 100 μL of the supernatant were transferred to a flat-bottomed 96-well plate and the absorbance was measured at 540 nm in a Tecan Infinity M1000 spectrophotometer plate reader. The hemolysis percentage was calculated, considering the absorbance values of the Triton and PBS wells as 100% and 0% hemolysis, respectively.
The resultant sigmoidal curves were analyzed with the drc22 R package using a log-logistic model with 3 fixed parameters to obtain the HC50 values. […]
NCI-60 screening procedure […]
Each peptide was tested in a 5-concentration assay, starting at 10^-4 M and diluting 10-fold to the lowest 10^-8 M concentration. The peptides were incubated for 48 h and the cell concentration was assayed by using the sulforhodamine B assay25 and optical density measurements. The growth inhibition (GI50) value24, measures the growth inhibitory power of the drug agent. The GI50 value is the concentration of the test drug for which the condition in Eq. S1 is met, where T is the optical density of the test well after a 48-h exposure to the peptide, T0 the optical density before applying the peptide drug and C the control optical density of a well where no peptide was applied.

In data set [1] the test system is noncancer HDMEC primary cells (human dermal microvascular endothelial cells). Description: Cell viability assay (MTT). The format is cell-based. The following applies: Table S2; noncancer primary cells; MTT, 24 h; mean ± sd; N = 2 independent measurements with six technical replicates each (Figs S6-S8). The procedure:
(§1) 10% fetal bovine serum and 1% penicillin-streptomycin (Thermo Fisher Scientific, Waltham, MA, USA). The cultures were kept at 37°C in a 5% CO2 atmosphere incubator (Thermo Fisher Scientific, Waltham, MA, USA) and split every two to three days to new culture flasks. Cells no older than 20 passages were used for experiments.
(§2) For splitting, the cell culture media was aspirated, the cells were washed with 0.01 M phosphate buffered saline (PBS, Gibco, Thermo Fisher Scientific, Waltham, MA, USA) and trypsin-EDTA (trypsin - ethylene diamine tetraacetic acid, Fisher scientific, UK) was added to the cell layer to detach them from the flask surface. After incubation for 2 min at 37°C, cells were resuspended with an equal volume of DMEM media and centrifuged at 310 g for 5 min at 4°C. After removal of the supernatant the cells were resuspended in DMEM cell media and split into new cell culture flasks at a 1/3 to 1/5 ratio.
(§3) Determination of the anticancer peptides half effective concentration (EC50) was performed by a 3-(4,5-dimethylthiazol-2-yl)-2,5-diphenyltetrazolium bromide (MTT) assay, as described elsewhere21. Briefly, […] were seeded in each well of a 96-well plate and left to adhere and […]
(§4) sulfoxide (DMSO, Fisher Scientific, UK) at an intermediate concentration of 1 mM. The peptides were then diluted in a 2-fold dilution series starting at 100 μM with DMEM culture media. Cells were incubated with the peptide solutions for 24 h. After this time, the cell media was removed and the cells were incubated for 1 h with a 0.5 mg mL−1 MTT solution to allow enough time for formazan crystal formation (Sigma Aldrich, Steinheim, Germany). The supernatant was removed and 100 μL of DMSO were added into each well to resuspend the formazan crystals.
(§5) After manually shaking the plates to completely dissolve the crystals, the absorbance was measured at 540 nm in a Tecan Infinity M1000 spectrophotometer. The cell viability was determined based on the quantification of the color intensity in each culture well, considering the absorbance obtained by the control media without peptides as a 100% survival. The resultant sigmoidal curves were analyzed with the drc22 R package using a log-logistic model

Data set [2] relates to A549 lung adenocarcinoma cell line. Description: Cell viability assay (MTT). In kind it is cell-based, human. The following applies: Table S2; MTT, 24 h; mean ± sd; N = 2 independent measurements with six technical replicates each (Figs S6-S8); read-out: A549 EC50 /µM. How it is done:
as §1, §2, §3, §4, §5

For data set [3], the system named is MCF7 breast adenocarcinoma cell line. Description: Cell viability assay (MTT). In kind it is cell-based, human. The following applies: Table S2, 24 h, mean ± sd, N = 2 independent measurements with six technical replicates each (Figs S6-S8). The procedure: as §1, §2, §3, §4, §5

On to `CC[C@H](C)[C@H](NC(=O)[C@H](CCCCN)NC(=O)[C@H](CCCCN)NC(=O)[C@@H](NC(=O)[C@@H](NC(=O)[C@@H](N)CCC(N)=O)C(C)C)C(C)C)C(=O)N[C@@H](CCCNC(=N)N)C(=O)N[C@H](C(=O)N[C@@H](Cc1c[nH]c2ccccc12)C(=O)N[C@@H](Cc1ccc(O)cc1)C(=O)N[C@@H](Cc1c[nH]cn1)C(=O)N[C@@H](CCCCN)C(=O)N[C@@H](C)C(=O)N[C@@H](Cc1c[nH]c2ccccc12)C(=O)N[C@@H](Cc1c[nH]cn1)C(=O)N[C@H](C(=O)N[C@@H](CC(C)C)C(=O)NCC(=O)N[C@@H](CCCCN)C(=O)N[C@H](C(N)=O)C(C)C)C(C)C)[C@@H](C)O` [Off2.2.1] (H-QVVKKIRTWYHKAWHVLGKV-NH2), for which, in the data set with human erythrocytes, the “Eryhtr. HC50 /µM” value was more than 200 µM. Also, the EC50 in data set [1] was 96 ± 7 µM; in data set [2], more than 100 µM; in data set [3] it was 76 ± 15 µM.

`CC[C@H](C)[C@H](NC(=O)[C@H](CC(C)C)NC(=O)[C@@H](N)CCC(N)=O)C(=O)N[C@@H](Cc1c[nH]cn1)C(=O)N[C@@H](CCCCN)C(=O)N[C@H](C(=O)N[C@@H](CCCNC(=N)N)C(=O)N[C@H](C(=O)N[C@@H](Cc1c[nH]c2ccccc12)C(=O)N[C@@H](Cc1ccc(O)cc1)C(=O)N[C@@H](CCCNC(=N)N)C(=O)N[C@@H](CCCCN)C(=O)N[C@@H](C)C(=O)N[C@@H](Cc1c[nH]c2ccccc12)C(=O)N[C@@H](Cc1c[nH]cn1)C(=O)N[C@H](C(=O)N[C@@H](CC(C)C)C(=O)NCC(=O)N[C@@H](CCCCN)C(=O)N[C@H](C(N)=O)C(C)C)C(C)C)[C@@H](C)O)[C@@H](C)CC` [Off2.2.2] (H-QLIHKIRTWYRKAWHVLGKV-NH2): the “Eryhtr. HC50 /µM” value in the data set on human erythrocytes is recorded as more than 200 µM. The EC50 in data set [1] worked out at 28 ± 3 µM; in data set [2] it was 20 ± 2 µM; in data set [3], 13 ± 1 µM.

As to `CC[C@H](C)[C@H](NC(=O)[C@H](Cc1c[nH]cn1)NC(=O)[C@H](Cc1c[nH]c2ccccc12)NC(=O)[C@H](C)NC(=O)[C@H](CCCCN)NC(=O)[C@H](CCCNC(=N)N)NC(=O)[C@H](CC(C)C)NC(=O)[C@H](Cc1c[nH]c2ccccc12)NC(=O)[C@@H](NC(=O)[C@H](CCCNC(=N)N)NC(=O)[C@H](Cc1c[nH]c2ccccc12)NC(=O)[C@H](CCCCN)NC(=O)[C@H](CCCCN)NC(=O)[C@H](CC(C)C)NC(=O)[C@H](CC(C)C)NC(=O)[C@@H](N)Cc1c[nH]cn1)[C@@H](C)O)C(=O)N[C@H](C(=O)NCC(=O)N[C@@H](CCCCN)C(=O)N[C@H](C(N)=O)C(C)C)C(C)C` [Off2.2.3] (H-HLLKKWRTWLRKAWHIVGKV-NH2), the “Eryhtr. HC50 /µM” value with human erythrocytes was 59 ± 6 µM. For the same compound, the results for the EC50 in data set [1], in data set [2] and in data set [3] were 6.1 ± 0.5 µM, 9 ± 1 µM and 7 ± 1 µM, respectively.

As for `CC[C@H](C)[C@H](NC(=O)[C@@H](NC(=O)[C@H](Cc1c[nH]cn1)NC(=O)[C@H](Cc1ccccc1)NC(=O)[C@H](C)NC(=O)[C@H](CCCCN)NC(=O)[C@H](CCCNC(=N)N)NC(=O)[C@H](Cc1ccc(O)cc1)NC(=O)[C@H](Cc1c[nH]c2ccccc12)NC(=O)[C@@H](NC(=O)[C@H](CCCNC(=N)N)NC(=O)[C@@H](NC(=O)[C@H](CCCCN)NC(=O)[C@H](CCCCN)NC(=O)[C@H](CC(C)C)NC(=O)[C@@H](NC(=O)[C@@H](N)CCC(N)=O)C(C)C)C(C)C)[C@@H](C)O)C(C)C)C(=O)NCC(=O)N[C@@H](CCCCN)C(=O)N[C@H](C(N)=O)C(C)C` [Off2.2.4] (H-QVLKKVRTWYRKAFHVIGKV-NH2), the “Eryhtr. HC50 /µM” value in the data set with human erythrocytes was more than 200 µM. For the same compound, the EC50 is more than 100 µM in data set [1], more than 100 µM in data set [2] and 68 ± 5 µM in data set [3].

For the compound `CC(C)C[C@H](NC(=O)[C@H](Cc1c[nH]cn1)NC(=O)[C@H](Cc1c[nH]c2ccccc12)NC(=O)[C@H](C)NC(=O)[C@H](CCCCN)NC(=O)[C@H](CCCNC(=N)N)NC(=O)[C@H](Cc1ccc(O)cc1)NC(=O)[C@H](Cc1c[nH]c2ccccc12)NC(=O)[C@@H](NC(=O)[C@H](CCCNC(=N)N)NC(=O)[C@@H](NC(=O)[C@H](CCCCN)NC(=O)[C@H](CCCCN)NC(=O)[C@H](CC(C)C)NC(=O)[C@H](CC(C)C)NC(=O)[C@@H](N)CCC(N)=O)C(C)C)[C@@H](C)O)C(=O)N[C@@H](Cc1ccc(O)cc1)C(=O)NCC(=O)N[C@@H](CCCCN)C(=O)N[C@H](C(N)=O)C(C)C` [Off2.2.5] (H-QLLKKVRTWYRKAWHLYGKV-NH2), the “Eryhtr. HC50 /µM” value with human erythrocytes is given as more than 200 µM. For the same compound, the EC50 in data set [1] is 27.2 ± 0.5 µM; in data set [2], 29.3 ± 0.9 µM; in data set [3], 16 ± 2 µM.

Turning to `CC[C@H](C)[C@H](NC(=O)[C@H](CC(C)C)NC(=O)[C@@H](N)CCC(N)=O)C(=O)N[C@@H](CCCCN)C(=O)N[C@@H](CCCCN)C(=O)N[C@@H](CC(C)C)C(=O)N[C@@H](CCCNC(=N)N)C(=O)N[C@H](C(=O)N[C@@H](Cc1c[nH]c2ccccc12)C(=O)N[C@@H](Cc1ccc(O)cc1)C(=O)N[C@@H](CCCNC(=N)N)C(=O)N[C@@H](CCCCN)C(=O)N[C@@H](C)C(=O)N[C@@H](Cc1c[nH]c2ccccc12)C(=O)N[C@@H](Cc1c[nH]cn1)C(=O)N[C@H](C(=O)N[C@@H](CC(C)C)C(=O)NCC(=O)N[C@@H](CCCCN)C(=O)N[C@@H](CC(C)C)C(N)=O)C(C)C)[C@@H](C)O` [Off2.2.6] (H-QLIKKLRTWYRKAWHVLGKL-NH2), the “Eryhtr. HC50 /µM” value in the data set on human erythrocytes was more than 200 µM. The EC50 in data set [1] amounted to 9 ± 1 µM; in data set [2], 10.6 ± 0.8 µM; in data set [3], 6.5 ± 0.2 µM.

Regarding `CC[C@H](C)[C@H](NC(=O)[C@H](CCCCN)NC(=O)CNC(=O)[C@@H](NC(=O)[C@H](CC(C)C)NC(=O)[C@H](Cc1c[nH]cn1)NC(=O)[C@H](Cc1c[nH]c2ccccc12)NC(=O)[C@H](C)NC(=O)[C@H](CCCCN)NC(=O)[C@H](CCCCN)NC(=O)[C@@H](NC(=O)[C@H](Cc1c[nH]c2ccccc12)NC(=O)[C@@H](NC(=O)[C@H](CCCNC(=N)N)NC(=O)[C@@H](NC(=O)[C@H](CCCCN)NC(=O)[C@H](CCCCN)NC(=O)[C@@H](NC(=O)[C@@H](NC(=O)[C@@H](N)CCC(N)=O)[C@@H](C)CC)[C@@H](C)CC)C(C)C)[C@@H](C)O)[C@@H](C)CC)[C@@H](C)CC)C(N)=O` [Off2.2.7] (H-QIIKKVRTWIKKAWHLIGKI-NH2), in the data set on human erythrocytes, the “Eryhtr. HC50 /µM” value is listed as more than 100 µM. Moreover, the EC50 is 17 ± 1 µM in data set [1], 12 ± 2 µM in data set [2] and 8 ± 1 µM in data set [3].

Turning to `CC[C@H](C)[C@H](NC(=O)[C@H](Cc1c[nH]cn1)NC(=O)[C@H](Cc1c[nH]c2ccccc12)NC(=O)[C@H](C)NC(=O)[C@H](CCCNC(=N)N)NC(=O)[C@H](CCCNC(=N)N)NC(=O)[C@H](CC(C)C)NC(=O)[C@H](Cc1c[nH]c2ccccc12)NC(=O)[C@@H](NC(=O)[C@H](CCCNC(=N)N)NC(=O)[C@@H](NC(=O)[C@H](CCCNC(=N)N)NC(=O)[C@H](CCCNC(=N)N)NC(=O)[C@H](CC(C)C)NC(=O)[C@H](Cc1ccc(O)cc1)NC(=O)[C@@H](N)CCC(N)=O)C(C)C)[C@@H](C)O)C(=O)N[C@@H](CC(C)C)C(=O)NCC(=O)N[C@@H](CCCCN)C(=O)N[C@H](C(N)=O)C(C)C` [Off2.2.8] (H-QYLRRVRTWLRRAWHILGKV-NH2), in the data set with human erythrocytes, the “Eryhtr. HC50 /µM” value stood at 21 ± 1 µM. The EC50 amounted to 10.3 ± 0.3 µM in data set [1], 16.5 ± 0.2 µM in data set [2] and 11 ± 0.2 µM in data set [3].
